Reference: patent US9867811B2, “Method of treating atherosclerosis in high triglyceride subjects” (NOVARTIS AG, priority 2011, dated 2018)

Tests used:
CETP [1] = assay: Ex vivo CETP activity in plasma of hamsters (saline or Triton WR-1339 treated); settings: hamster; for Inhibition of plasma CETP activity: saline group, 8 h after dose; for Extent of CETP inhibition reduced by, relative to the saline group (74% inhibition): 10 mg/kg oral; for Increase in plasma CETP activity: 3 h after administration
Experimental: Nine- to ten-week-old, male golden Syrian hamsters were purchased from Japan SLC Inc. (Shizuoka, Japan). Animals underwent a more than 1-week acclimation period under the following conditions: 8:00/20:00 light/dark cycle, room temperature 23±2° C. […] During this time, animals received filtered (0.5 μm) water and a standard chow diet ad libitum.
Whole blood samples were collected using a heparin-washed syringe (Heparin sodium injection “Ajinomoto”; Ajinomoto, Tokyo, Japan) from the abdominal vein by venipuncture under isoflurane (Abbott Japan Co. Ltd.) inhalant anesthesia. After centrifugation at 15,000 rpm for 10 min at 4° C., heparinized plasma was prepared and stored at −80° C. until use.
CETP activity (RFU/min) was defined as the change in fluorescence intensity from 30 to 90 min.
The effect of an acute increase of plasma triglycerides in vivo (acute increase in triglyceride-rich particles) on the ability of Torcetrapib to alter plasma CETP activity, triglyceride and total cholesterol levels was investigated. Torcetrapib at doses of 3, 10 or 30 mg/kg or vehicle was administered once by gavage to hamsters fed a standard chow diet.
Compound or vehicle was administered once by gavage to hamsters fed a standard chow diet.

[2] = Total cholesterol and triglyceride concentrations in hamster plasma; type: in vivo; settings: for Increase in plasma total cholesterol / Increase in plasma triglycerides: 3 h after administration
Experimental: Nine- to ten-week-old, male golden Syrian hamsters were purchased from Japan SLC Inc. (Shizuoka, Japan). Animals underwent a more than 1-week acclimation period under the following conditions: 8:00/20:00 light/dark cycle, room temperature 23±2° C. (range), 55±15% (range) humidity. During this time, animals received filtered (0.5 μm) water and a standard chow diet ad libitum.
(§1) To induce an acute increase in plasma triglyceride levels, Triton WR-1339 (Cat. No. 35418-12, Nacalai Tesque Inc, Kyoto, Japan) was dissolved in saline (Otsuka Normal Saline, Otsuka Pharmaceuticals, Tokushima, Japan) at a concentration of 2.5 to 10% (w/w), and was intravenously administered at a volume of 2 mL/kg from the basilic vein under isoflurane (FORANE®, Abbott Japan Co. Ltd., Tokyo, Japan) inhalant anesthesia. Whole blood samples were collected using a heparin-washed syringe (Heparin sodium injection “Ajinomoto”; Ajinomoto, Tokyo, Japan) from the abdominal vein by venipuncture under isoflurane (Abbott Japan Co. Ltd.) inhalant anesthesia. After centrifugation at 15,000 rpm for 10 min at 4° C., heparinized plasma was prepared and stored at −80° C. until use.
Compounds (CETP inhibitors) were suspended in 0.5% methyl cellulose (Methyl cellulose 400 cP, Cat. No. 138-05072, Wako Pure Chemical Industries, Osaka, Japan) solution, which was used as a vehicle. Compound or vehicle (10 mL/kg) was administered once by oral gavage 5 h before administration of Triton WR-1339.
Cholesterol and triglyceride concentrations in plasma and serum were measured manually with kits (Cholesterol E-test, Cat. No. 439-17501, and Triglyceride E-test, Cat. No. 432-40201, Wako Pure Chemical, Osaka, Japan).

CETP [3] = assay: Ex vivo plasma CETP activity assay with exogenously added compound (maximum inhibition); type: biochemical; settings: 10 μM, hamster plasma (80% plasma)
Experimental: Plasma CETP activity ex vivo was determined as followed: 50 μL of hamster plasma (final 80% plasma) was mixed with 10 μL of donor solution diluted with assay buffer composed of 50 mM Tris-HCl (pH7.4) containing 150 mM NaCl and 2 mM EDTA in a 96-well half area black flat bottom plate (Cat. No. 3686, Corning, Corning, N.Y.). Fluorescence intensity was measured every 15 min at an excitation wave length of 485 nm and an emission wavelength of 535 nm for 120 min at 37° C. using ARVO SX+L (PerkinElmer, Wellesley, Mass.). CETP activity (RFU/min) was defined as the change in fluorescence intensity from 30 to 90 min.

CETP [4] = assay: Plasma CETP concentrations (ELISA) in hamsters; type: in vivo; settings: hamster, Triton WR-1339 i.v., any dose
Experimental: as §1
Plasma CETP concentrations were measured using an enzyme-linked […] assay (ELISA) kit (Cat No. 278181, Daiichi Pure Chemicals, Tokyo, Japan). Recombinant human CETP protein was used as a standard. Hamster plasma was diluted 250-fold by the dilution buffer in the kit, and then CETP concentration was measured according to the manufacturer's protocol.

[5] = HPLC lipoprotein analysis in hamster plasma; type: in vivo
Experimental: as §1
An HPLC-size exclusion chromatography system with an on-line enzymatic dual detection system for lipids has been used for lipoprotein analysis. Plasma samples were diluted (5-fold) with saline after filtration (0.45 μm, Millipore Co, Cat. No. UFC30HV00) and injected into the HPLC system at a volume of 100 μL (as 20 μL of plasma), every 95 min, using an auto-sampler. Plasma lipoproteins were separated using a single Superose 6 column and filtered phosphate buffered saline (0.45 μm, Millipore Co., Bedford, Mass., Cat. No. SJHVM4710; PBS, Dainippon Pharmaceutical, Osaka, Japan Cat. No. 28-103-05 FN) at a flow rate of 0.5 mL/min. Each enzymatic reagent was pumped at a flow rate of 0.25 mL/min. Both enzymatic reactions proceeded at 37° C. in a reactor coil (Teflon tube, 15 m×0.4 mm id) in the column oven. The color developed after the enzyme reaction was measured at 580 nm, and the electric signal was monitored (every 0.5 second).
A control pooled EDTA-plasma sample was used to standardize the cholesterol and phospholipid levels in lipoproteins. Cholesterol and phospholipid levels in the control plasma were measured manually with kits (Cholesterol E-test, Cat. No. 439-17501, and Phospholipid C-test, Cat. No. 433-36201, respectively, Wako Pure Chemical Industries), and the concentrations were 121.8 and 216.8 mg/dL, respectively. Concentrations of VLDL, LDL, and HDL-cholesterol and -phospholipid levels were calculated using chromatogram areas observed for control hamster plasma samples. With this methodology, the retention times of control hamster VLDL, LDL, and HDL were 18.5-24.0, 24.0-30.5, and 31.5-42.0 min, respectively.

For `CCOC(=O)N1c2ccc(C(F)(F)F)cc2[C@@H](N(Cc2cc(C(F)(F)F)cc(C(F)(F)F)c2)C(=O)OC)C[C@H]1CC` [Torcetrapib], the “Differences between the saline and WR-1339 groups in the extent of CETP inhibition” value (CETP [1]; 3 mg/kg oral gavage) was 5.5%, the “Inhibition of plasma CETP activity” value (CETP [1]; 3 mg/kg oral gavage) was 38% and the “Differences between the saline and WR-1339 groups in the extent of CETP inhibition” value (CETP [1]; 10 mg/kg oral gavage) was 13%. The “Inhibition of plasma CETP activity” value (CETP [1]; 10 mg/kg oral gavage) was 74%, the “Extent of CETP inhibition reduced by, relative to the saline group (74% inhibition)” value (CETP [1]; Triton WR-1339 50 mg/kg i.v.) was 44% and the “Extent of CETP inhibition reduced by, relative to the saline group (74% inhibition)” value (CETP [1]; Triton WR-1339 100 mg/kg i.v.) was 13%. The “Differences between the saline and WR-1339 groups in the extent of CETP inhibition” value (CETP [1]; 30 mg/kg oral gavage (P<0.01)) was 35%, the “Inhibition of plasma CETP activity” value (CETP [1]; 30 mg/kg oral gavage) was 88% and the “Inhibition of CETP activity, lower dose group, Triton WR-1339 group” value (CETP [1]; oral gavage: Torcetrapib 5 mg/kg, Anacetrapib 1.5 mg/kg, Example 49 1.5 mg/kg, Example 8 0.75 mg/kg, Triton WR-1339 100 mg/kg i.v., not significant vs vehicle) was 13%. For the same compound, the “Inhibition of CETP activity, lower dose group, saline group” value (CETP [1]; oral gavage: Torcetrapib 5 mg/kg, Anacetrapib 1.5 mg/kg, Example 49 1.5 mg/kg, Example 8 0.75 mg/kg, saline i.v.) was 60%, the “Inhibition of CETP activity, higher dose group, Triton WR-1339 group” value (CETP [1]; oral gavage: Torcetrapib 10 mg/kg, Anacetrapib 3 mg/kg, Example 49 3 mg/kg, Example 8 1.5 mg/kg, Triton WR-1339 100 mg/kg i.v.) was 8% and the “Inhibition of CETP activity, higher dose group, saline group” value (CETP [1]; oral gavage: Torcetrapib 10 mg/kg, Anacetrapib 3 mg/kg, Example 49 3 mg/kg, Example 8 1.5 mg/kg, saline i.v.) was 75%. The “Effect on plasma triglycerides” value ([2]; Triton WR-1339 treatment groups) was “did not affect”, the “Effect on plasma triglyceride levels” value ([2]; saline group, 3 and 30 mg/kg oral doses) was “slightly, but significantly, lowered” and the “Effect on total cholesterol levels” value ([2]; saline or Triton WR-1339 groups) was “not changed”. For the same compound, the “Maximum inhibition of CETP activity, compound exogenously added, Triton WR-1339 group” value (CETP [3]; Triton WR-1339 group) was “around 75%” and the “Maximum inhibition of CETP activity, compound exogenously added, saline group” value (CETP [3]; saline group) was roughly 100%.
In the case of Triton WR-1339, the “Increase in plasma CETP activity” value (CETP [1]; Triton WR-1339 50 mg/kg i.v.) is reported as 1.7 fold, the “Increase in plasma CETP activity” value (CETP [1]; Triton WR-1339 100 mg/kg i.v.) is reported as 3.7 fold and the “Increase in plasma total cholesterol” value ([2]; Triton WR-1339 50 mg/kg i.v.) is reported as 1.2 fold. The “Increase in plasma triglycerides” value ([2]; Triton WR-1339 50 mg/kg i.v.) was 2.0 fold, the “Increase in plasma total cholesterol” value ([2]; Triton WR-1339 100 mg/kg i.v.) was 1.4 fold and the “Increase in plasma triglycerides” value ([2]; Triton WR-1339 100 mg/kg i.v.) was 4.0 fold. The “Time of maximum increase in triglyceride levels after administration” value ([2]; Triton WR-1339 50, 100 or 200 mg/kg i.v.) was 8 h, the “Effect on plasma CETP concentrations” value (CETP [4]) was “did not significantly affect” and the “Effect on HDL-cholesterol” value ([5]; Triton WR-1339 50 mg/kg i.v.) was “not changed”. The “Effect on HDL-cholesterol” value ([5]; Triton WR-1339 100 mg/kg i.v.) was “reduced”, the “Effect on LDL-cholesterol” value ([5]; Triton WR-1339 i.v.) was “reduced” and the “Effect on cholesterol content of VLDL” value ([5]; Triton WR-1339 i.v. compared to saline group) was “increased”.
